According to PMC7154053, “Chemical, Metabolic, and Cellular Characterization of a FtsZ Inhibitor Effective Against Burkholderia cenocepacia” (Frontiers in Microbiology, 2020):
In brackets after ≈: the same amount, converted by molar mass. Like-named read-outs stand apart in the source and are kept apart here.

Legend:
B. cenocepacia J2315 = assay: Time-lapse microscopy, single-cell analysis in microfluidic device; format: cell-based, Burkholderia cenocepacia
Description: B. cenocepacia J2315 was cultured over-night in Middlebrook 7H9 broth, supplemented with 10% (v/v) DS enrichment (20 g dextrose, 8.5 g sodium chloride in 1 L water) and 5% (v/v) of a casamino acids solution (10 g casamino acids in 100 ml water). Cells were diluted 10-fold in the same fresh 7H9 medium, and 5 μl of the diluted cell suspension were inoculated into a custom-made microfluidic hexa-device, as previously described (Manina et al., [2019]). Silicone tubing (0.76 mm ID) was connected to each inlet and outlet ports of the hexa-device to enable medium circulation. Two 50 ml syringes were connected to the inlet tubing, and prewarmed 7H9 medium was pumped through the microfluidic device at 15 μl/min. The outlet tubing were inserted into a waste receptacle containing bleach. […] Bacteria were imaged in phase contrast, using a UPLFLN100XO2/PH3/1.30 objective (Olympus) and a high-speed sCMOS camera, with the help of an automated epifluorescence inverted microscope (DeltaVision Elite, GE Healthcare). The microscope was equipped with an environmental chamber maintained at 37°C. Images were recorded at 20-min intervals and up to 46 h. Exposure conditions were as follows: phase 50% T, 150 ms. In each experiment, 190 XY fields were imaged. The same experimental set-up was carried out twice.
Manual segmentation of individual cells and analysis of image stacks were performed using the ImageJ 1.52a software. The Selection Brush Tools was used to draw polygons corresponding to the shape of individual cells and to extract the cell planar area (μm^2). Measurements of the cell area were repeated throughout the generation time of individual cells, to calculate the growth rate by fitting an exponential curve.
Biphasic killing represents the typical pattern of drug persistence, whereby the initial linear mortality of the population is followed by a second phase where a subpopulation of cells is able to endure inhibitory drug concentrations in the absence of genetic mutations (Van den Bergh et al., [2017]). In contrast to drug-resistant cells, which continue to replicate in the presence of the drug, drug-persistent cells either derive from pre-existing non-growing cells or slow down their growth during drug exposure, and their progeny is killed with kinetics similar to that of the initial population (Van den Bergh et al., [2017]; Balaban et al., [2019]). […] To examine the C109 killing dynamics of B. cenocepacia at the single-cell level, we carried out a time-lapse microscopy experiment, divided into several steps. Wild type B. cenocepacia J2315 cells were first seeded into a microfluidic device (Manina et al., [2019]), and perfused with prewarmed 7H9 medium for 3 h, to allow the cells to adapt to the microfluidic environment. […] Cells were then perfused with C109-free 7H9 medium for 12 h, enabling the recovery and expansion of surviving cells. […] During the time-lapse imaging, cells were monitored every 20 min for a total of 46 h. The total number of cells, the single-cell area, and the number of division and lysis events were measured during each step of the experiment.

B. cenocepacia FCF22 = assay: Checkerboard assay with efflux pump inhibitor PaβN MC-207.110; format: cell-based, Burkholderia cenocepacia; details: Burkholderia cenocepacia, FCF22; read-out: MIC in the presence of MC-207.110, FCF22
Description: (§1) The microtiter plates were incubated at 37°C for 48 (for B. cenocepacia) or 24 h (for all the other strains) and growth was determined by the resazurin method (Martin et al., [2006]). A solution of resazurin sodium salt (Sigma Aldrich) was prepared at 0.01% in distilled water and filter-sterilized. Thirty microliter of resazurin solution were added to each well after 1 or 2 days of incubation at 37°C, and the microtiters were re-incubated at the same temperature for 4 h. The MIC was defined as the lowest concentration of the drug that prevented a change in color from blue to pink, which indicates bacterial growth. […] Three independent biological replicates were used for each MIC determination.

B. cenocepacia FCF19 = assay: as above; format: cell-based, Burkholderia cenocepacia; details: Burkholderia cenocepacia, FCF19; read-out: MIC in the presence of MC-207.110, FCF19
Description: as §1

P. aeruginosa PAO1 = assay: MIC, 2-fold microdilution, resazurin method; format: cell-based; details: Pseudomonas aeruginosa, PAO1
E. coli ATCC 25922 = assay: MIC, 2-fold microdilution, resazurin method; format: cell-based; details: Escherichia coli, ATCC25922

COC(=O)CSc1ccc2nsnc2c1[N+](=O)[O-] [C109, methyl [(4-nitro-2,1,3-benzothiadiazol-5-yl)thio]acetate]
elongated cells that resumed normal growth during washout (possible persistent cells) (B. cenocepacia J2315; 8 of 3,000 elongated cells formed during first exposure): 0.27% | cells died from lysis, first treatment (B. cenocepacia J2315; C109 100 μg/ml (12.5X-MIC), 4 h): 70% | cells still able to grow with considerable filamentation, first treatment (B. cenocepacia J2315; C109 12.5X-MIC, 4 h): 3.5% | cells that stopped to divide (sensitive), second treatment (B. cenocepacia J2315; C109 12.5X-MIC, 24 h): 94% | decline in cell population, second treatment (B. cenocepacia J2315; C109 12.5X-MIC, 24 h): 92% | cells with elongated phenotype, second treatment (B. cenocepacia J2315; C109 12.5X-MIC, 24 h, of the total cell number): ~6% | filamentous cells that started again to divide during washout (B. cenocepacia J2315; C109 washout with fresh medium): 30% | increase of cell area, cells dying by lysis (B. cenocepacia J2315; first treatment): 2 fold | increase of cell area, filamentous cells (B. cenocepacia J2315; first treatment): up to 5 fold | increase of cell area, elongated cells (B. cenocepacia J2315; second treatment, 8–10 μm^2): up to 10 fold | MIC (B. cenocepacia FCF22): 16 µg/mL | MIC (B. cenocepacia FCF19): 8 µg/mL | MIC (P. aeruginosa PAO1; LB, 24 h, read-out: MIC P. aeruginosa PAO1): 128 µg/mL (≈ 449 µM) | MIC (P. aeruginosa PAO1; Supplementary Table 1, read-out: MIC (µg/ml) P. aeruginosa PAO1): 128 µg/mL (≈ 449 µM) | MIC (E. coli ATCC 25922; LB, 24 h, read-out: MIC E. coli 25922): 8 µg/mL (≈ 28 µM) | MIC (E. coli ATCC 25922; Supplementary Table 1, read-out: MIC (µg/ml) E. coli 25922): 8 µg/mL (≈ 28 µM)
